{"source": "paper PMC4579270", "about": "“Identification and Characterization of an Irreversible Inhibitor of CDK2” (Chemistry & Biology, 2015)", "assay_in_all_cases": "Dundee protein kinase screen", "assay_type_in_all_cases": "biochemical", "key": {"DAPK1": {"target": "DAPK1 (Homo sapiens, UniProt P53355)", "sequence (P53355 whole entry)": "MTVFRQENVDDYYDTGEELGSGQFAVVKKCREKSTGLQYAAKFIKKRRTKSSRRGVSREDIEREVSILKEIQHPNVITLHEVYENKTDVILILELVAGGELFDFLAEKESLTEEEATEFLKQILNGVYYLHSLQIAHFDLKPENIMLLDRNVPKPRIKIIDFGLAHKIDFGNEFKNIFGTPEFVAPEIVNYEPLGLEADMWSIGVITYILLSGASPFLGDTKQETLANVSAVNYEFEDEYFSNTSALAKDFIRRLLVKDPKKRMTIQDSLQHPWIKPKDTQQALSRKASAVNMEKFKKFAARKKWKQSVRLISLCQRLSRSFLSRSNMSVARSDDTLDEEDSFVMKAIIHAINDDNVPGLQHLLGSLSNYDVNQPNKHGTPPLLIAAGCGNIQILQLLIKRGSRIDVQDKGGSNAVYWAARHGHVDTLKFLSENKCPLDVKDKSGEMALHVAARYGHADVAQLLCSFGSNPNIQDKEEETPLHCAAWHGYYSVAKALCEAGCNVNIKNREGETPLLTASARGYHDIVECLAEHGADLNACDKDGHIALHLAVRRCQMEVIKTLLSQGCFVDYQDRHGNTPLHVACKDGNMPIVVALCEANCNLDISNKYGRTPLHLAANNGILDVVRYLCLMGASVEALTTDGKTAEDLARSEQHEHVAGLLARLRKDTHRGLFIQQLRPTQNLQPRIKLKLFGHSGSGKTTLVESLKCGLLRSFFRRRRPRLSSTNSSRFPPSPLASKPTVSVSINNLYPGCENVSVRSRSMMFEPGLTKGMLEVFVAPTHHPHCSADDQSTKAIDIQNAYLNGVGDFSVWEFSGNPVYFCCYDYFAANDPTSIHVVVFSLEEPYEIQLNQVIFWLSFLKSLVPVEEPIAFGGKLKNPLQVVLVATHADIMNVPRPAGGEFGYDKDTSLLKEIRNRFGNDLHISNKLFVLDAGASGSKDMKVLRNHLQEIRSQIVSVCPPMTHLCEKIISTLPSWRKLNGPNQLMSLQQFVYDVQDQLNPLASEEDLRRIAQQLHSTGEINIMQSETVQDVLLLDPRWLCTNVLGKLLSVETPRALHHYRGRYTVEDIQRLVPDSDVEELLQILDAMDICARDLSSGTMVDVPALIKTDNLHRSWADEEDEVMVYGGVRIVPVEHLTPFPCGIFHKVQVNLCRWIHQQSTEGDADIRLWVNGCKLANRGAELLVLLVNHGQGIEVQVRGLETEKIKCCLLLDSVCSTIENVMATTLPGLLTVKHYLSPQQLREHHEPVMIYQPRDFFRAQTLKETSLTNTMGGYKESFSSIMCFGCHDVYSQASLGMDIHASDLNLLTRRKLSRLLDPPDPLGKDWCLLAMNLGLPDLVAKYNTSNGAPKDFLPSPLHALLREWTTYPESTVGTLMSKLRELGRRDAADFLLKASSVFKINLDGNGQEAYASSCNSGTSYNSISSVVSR", "settings": "DAPK1, 1µM; read-out: %Remaining activity at 1µM NU6300", "procedure,_shortened": "(§1)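 Selectivity panel of 131 protein kinases, inhibitor tested at a single concentration of 1 µM; values are % kinase activity remaining, mean of duplicates. Re-test of selected kinases used 0.5 µM in the standard format and again after a 4 hour pre-incubation with the inhibitor.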"}, "RSK1": {"target": "RSK1 (Homo sapiens, UniProt Q15418)", "sequence (Q15418 whole entry)": "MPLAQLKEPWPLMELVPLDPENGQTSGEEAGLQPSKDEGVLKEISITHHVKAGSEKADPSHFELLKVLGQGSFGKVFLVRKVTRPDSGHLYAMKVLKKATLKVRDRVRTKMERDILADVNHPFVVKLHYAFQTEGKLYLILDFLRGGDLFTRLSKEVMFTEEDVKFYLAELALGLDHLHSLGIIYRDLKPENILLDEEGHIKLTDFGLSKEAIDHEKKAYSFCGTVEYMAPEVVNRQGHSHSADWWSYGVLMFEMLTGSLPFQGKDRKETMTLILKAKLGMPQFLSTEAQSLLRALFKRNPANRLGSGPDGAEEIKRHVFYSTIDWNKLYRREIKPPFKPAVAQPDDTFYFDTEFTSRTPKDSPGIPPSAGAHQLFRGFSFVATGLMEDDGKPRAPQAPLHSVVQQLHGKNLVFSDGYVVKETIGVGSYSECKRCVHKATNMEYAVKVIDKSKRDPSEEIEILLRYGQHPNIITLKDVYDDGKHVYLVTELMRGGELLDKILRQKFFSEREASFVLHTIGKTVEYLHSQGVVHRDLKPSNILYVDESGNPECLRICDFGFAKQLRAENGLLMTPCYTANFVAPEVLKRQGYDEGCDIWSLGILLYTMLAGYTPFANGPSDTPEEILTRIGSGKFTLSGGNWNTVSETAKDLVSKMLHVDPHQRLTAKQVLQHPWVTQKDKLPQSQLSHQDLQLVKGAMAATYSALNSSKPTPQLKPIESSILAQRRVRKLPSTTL", "settings": "RSK1, 1µM; read-out: %Remaining activity at 1µM NU6300", "procedure,_shortened": "as §1"}, "EPH-B3": {"target": "T1, EPH-B3 (Homo sapiens, UniProt P54753)", "T1 sequence (P54753 34-998)": "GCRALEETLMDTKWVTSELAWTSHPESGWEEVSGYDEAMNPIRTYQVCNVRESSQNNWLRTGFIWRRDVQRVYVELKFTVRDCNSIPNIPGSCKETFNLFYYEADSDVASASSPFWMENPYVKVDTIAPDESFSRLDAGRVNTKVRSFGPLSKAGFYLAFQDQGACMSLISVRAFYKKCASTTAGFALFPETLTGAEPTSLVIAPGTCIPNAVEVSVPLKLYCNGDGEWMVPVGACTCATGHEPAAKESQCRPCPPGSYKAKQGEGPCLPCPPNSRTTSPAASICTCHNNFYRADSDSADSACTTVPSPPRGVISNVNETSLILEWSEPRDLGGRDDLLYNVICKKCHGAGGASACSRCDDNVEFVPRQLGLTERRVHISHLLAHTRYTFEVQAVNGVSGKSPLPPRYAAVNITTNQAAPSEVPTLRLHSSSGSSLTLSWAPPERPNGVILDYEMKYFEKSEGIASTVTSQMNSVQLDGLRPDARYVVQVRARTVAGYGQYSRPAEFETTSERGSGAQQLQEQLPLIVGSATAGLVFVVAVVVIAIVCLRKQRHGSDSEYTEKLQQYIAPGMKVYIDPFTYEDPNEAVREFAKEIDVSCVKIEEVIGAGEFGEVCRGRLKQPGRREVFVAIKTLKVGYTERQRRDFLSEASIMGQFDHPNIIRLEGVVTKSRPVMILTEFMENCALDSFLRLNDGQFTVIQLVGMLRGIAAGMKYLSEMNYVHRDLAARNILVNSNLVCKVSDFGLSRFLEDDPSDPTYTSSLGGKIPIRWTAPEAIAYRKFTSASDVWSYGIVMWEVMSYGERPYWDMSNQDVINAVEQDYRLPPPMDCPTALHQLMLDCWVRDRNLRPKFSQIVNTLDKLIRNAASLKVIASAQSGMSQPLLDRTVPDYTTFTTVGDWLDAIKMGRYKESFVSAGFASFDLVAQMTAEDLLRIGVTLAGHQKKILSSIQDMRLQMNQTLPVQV", "settings": "EPH-B3, 1µM; read-out: %Remaining activity at 1µM NU6300", "procedure,_shortened": "as §1"}, "TAO1": {"target": "T2, TAO1 (Homo sapiens, UniProt Q7L7X3)", "T2 sequence (Q7L7X3 1-1001)": "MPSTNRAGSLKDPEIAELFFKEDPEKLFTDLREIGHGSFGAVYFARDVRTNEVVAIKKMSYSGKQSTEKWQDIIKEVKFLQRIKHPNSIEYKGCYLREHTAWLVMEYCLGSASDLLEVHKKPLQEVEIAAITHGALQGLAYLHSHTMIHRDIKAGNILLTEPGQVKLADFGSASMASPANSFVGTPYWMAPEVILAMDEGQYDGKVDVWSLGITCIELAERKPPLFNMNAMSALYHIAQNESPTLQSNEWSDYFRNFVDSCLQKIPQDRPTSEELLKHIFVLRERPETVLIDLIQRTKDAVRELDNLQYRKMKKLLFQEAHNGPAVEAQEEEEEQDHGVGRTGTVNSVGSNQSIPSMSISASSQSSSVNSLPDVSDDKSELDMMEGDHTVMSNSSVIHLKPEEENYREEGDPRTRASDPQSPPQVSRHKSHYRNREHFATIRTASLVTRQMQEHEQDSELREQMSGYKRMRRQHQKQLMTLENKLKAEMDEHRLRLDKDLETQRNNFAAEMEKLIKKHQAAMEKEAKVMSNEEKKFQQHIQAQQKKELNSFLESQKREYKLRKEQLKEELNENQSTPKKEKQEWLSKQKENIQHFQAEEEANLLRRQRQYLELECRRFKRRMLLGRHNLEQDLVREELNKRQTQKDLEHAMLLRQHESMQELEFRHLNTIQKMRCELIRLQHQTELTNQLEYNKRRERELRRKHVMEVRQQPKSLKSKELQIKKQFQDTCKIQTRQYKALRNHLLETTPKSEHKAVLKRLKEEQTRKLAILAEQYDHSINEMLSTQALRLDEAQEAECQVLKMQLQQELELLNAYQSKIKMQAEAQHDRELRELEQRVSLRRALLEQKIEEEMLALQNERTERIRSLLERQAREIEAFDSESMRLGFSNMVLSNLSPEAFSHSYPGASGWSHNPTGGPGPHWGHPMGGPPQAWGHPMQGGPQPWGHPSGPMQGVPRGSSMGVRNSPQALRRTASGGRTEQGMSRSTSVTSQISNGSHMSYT", "settings": "TAO1, 1µM; read-out: %Remaining activity at 1µM NU6300", "procedure,_shortened": "as §1"}, "DYRK1A": {"target": "DYRK1A (Homo sapiens, UniProt Q13627)", "settings": "read-out: %Remaining activity at 1µM NU6300", "procedure,_shortened": "as §1"}}}
{"smiles": "C=CS(=O)(=O)c1ccc(Nc2nc(OCC3CCCCC3)c3nc[nH]c3n2)cc1", "note": "[NU6300, 6-(cyclohexylmethoxy)-N-(4-(vinylsulfonyl)phenyl)-9H-purin-2-amine]", "values": [{"measurement": "remaining activity at 1 µM", "setting": "DAPK1", "value": 83, "unit": "%"}, {"measurement": "remaining activity at 1 µM", "setting": "RSK1", "value": 50, "unit": "%"}, {"measurement": "remaining activity at 1 µM", "setting": "EPH-B3", "value": 14, "unit": "%"}, {"measurement": "remaining activity at 1 µM", "setting": "TAO1", "value": 27, "unit": "%"}, {"measurement": "remaining activity at 1 µM", "setting": "DYRK1A", "value": 73, "unit": "%"}]}
